According to patent US20130078224A1, “INDUCTION/MONITORING OF ARTERIOGENESIS USING SDF1 AND PDGFB OR INHIBITION OF PHD2” (LIFE SCIENCES RESEARCH PARTNERS VZW, priority 2010, published 2013):

Legend:
[1] = early clinical trials in myocardial infarction; cited from earlier work
NF-κB [2] = assay: NF-κB-responsive luciferase reporter assay in primary lung endothelial cells; type: cell-based, mice; details: WT and PHD2+/- ECs, TNF-α 20 ng/mL, eight hours
Method: Transduction and Transfection of Bone Marrow-Derived Macrophages and Lung Endothelial Cells: To express an inducible NF-κB responsive firefly luciferase reporter, commercially available lentiviral vector particles (LV) were used (Cignal Lenti NF-κB Reporter; SABiosciences). 2.5×10^5 bone marrow-derived macrophages and 10^5 primary lung endothelial cells (isolated as previously described (Mazzone et al., 2009, see above)) were seeded in a 24-well plate in DMEM 10% FBS or M199 20% FBS for eight hours. Cells were transduced with 10^8 TU/ml. Eight hours after transduction, the medium wash was replaced. After 48 hours, cells were stimulated with TNFα (20 ng/mL) for eight hours and the same amount of protein extract was read in a luminometer. For PHD3 silencing, siRNA oligonucleotides were designed using the Invitrogen online siRNA design tool (world wide web at maidesigner.invitrogen.com). The following sequences (sense strands) and target positions were used: PHD3 siRNA: 5′-[…]-3′ (SEQ ID NO:1); scramble siRNA:5′-[…]-3′ (SEQ ID NO:2). In brief, one day after the transduction of macrophages with LV, cells were transfected using Lipofectamine 2000 (Invitrogen) according to the manufacturer's instructions. Preparation of the oligonucleotide-Lipofectamine 2000 complexes was done as followed: 25 pmol siRNA oligonucleotide (stock: 20 μM) was diluted in 50 μl Opti-MEM I reduced serum medium. […]

NF-κB [3] = assay: NF-κB-responsive firefly luciferase reporter assay in bone marrow-derived macrophages; type: cell-based, mice; details: PHD2 haplodeficient vs WT macrophages
Method: Transduction and Transfection of Bone Marrow-Derived Macrophages and Lung Endothelial Cells: To express an inducible NF-κB responsive firefly luciferase reporter, commercially available lentiviral vector particles (LV) were used (Cignal Lenti NF-κB Reporter; SABiosciences). 2.5×10^5 bone marrow-derived macrophages and 10^5 primary lung endothelial cells (isolated as previously described (Mazzone et al., 2009, see above)) were seeded in a 24-well plate in DMEM 10% FBS or M199 20% FBS for eight hours. Cells were transduced with 10^8 TU/ml. Eight hours after transduction, the medium wash was replaced. After 48 hours, cells were stimulated with TNFα (20 ng/mL) for eight hours and the same amount of protein extract was read in a luminometer. For PHD3 silencing, siRNA oligonucleotides were designed using the Invitrogen online siRNA design tool (world wide web at maidesigner.invitrogen.com). The following sequences (sense strands) and target positions were used: PHD3 siRNA: 5′-[…]-3′ (SEQ ID NO:1); scramble siRNA:5′-[…]-3′ (SEQ ID NO:2). In brief, one day after the transduction of macrophages with LV, cells were transfected using Lipofectamine 2000 (Invitrogen) according to the manufacturer's instructions. Preparation of the oligonucleotide-Lipofectamine 2000 complexes was done as followed: 25 pmol siRNA oligonucleotide (stock: 20 μM) was diluted in 50 μl Opti-MEM I reduced serum medium. Lipofectamine 2000 (1.5 μl) was diluted in 50 μl Opti-MEM I reduced serum medium and incubated for five minutes at room temperature. siRNA oligonucleotides were gently mixed with Lipofectamine 2000 and allowed to incubate at room temperature for twenty minutes to form complexes. Just before transfection, the cell culture medium was removed and cells were rinsed twice with serum-free Opti-MEM I medium. The Lipofectamine 2000-siRNA oligonucleotide complexes were added to each well in 400 μl of serum-free Opti-MEM medium for five hours. Afterwards, cells were incubated in complete medium for 48 hours at 37° C. in a CO2 incubator and assayed for gene knockdown (qRT-PCR) and luciferase activity. To assess if the increased NFkB activity observed in PHD2^+/− macrophages was dependent on the hydroxylase activity of PHD2, 48 hours before transduction, 4×10^6 bone marrow-derived macrophages were resuspended in 240 μl of Opti-MEM and were electroporated (250 V, 950 uF, ∝ Ω) with 7 μg of plasmids expressing a wild-type PHD2 (PHD2^wt) or a PHD2 containing a mutation at the catalytic site (PHD2^H313A).

Row | Compound | mortality due to left ventricle rupture [1] | NF-κB activity (NF-κB [2]) | TNF-α-induced NF-κB activation (NF-κB [3])
1 | C[C@H]1C[C@@H]2[C@H]([C@@H](O)C[C@@]3(C)[C@H]2CC[C@]3(O)C(=O)CO)[C@@]2(C)C=CC(=O)C=C12 [methylprednisolone] | drastically increased mortality | – | –
2 | TNF-α | – | increases to the same level | significantly stronger
